Experimental data as given in patent publication US20080280952A1 (priority 2004, published 2008).

Molecular target: T1, human cannabinoid CB2 receptor (Homo sapiens, UniProt P34972)
T1 construct: expressed in transfected cells; host or cells: Saccharomyces cerevisiae strain MMY23 (cassette integrated at the ura3 locus, GPD promoter)
Assay: Cannabinoid CB2 receptor agonist activity, yeast reporter assay
Format: cell-based
Conditions: for Emax: read-out: efficacy (Emax) at the cloned human cannabinoid CB2 receptor
Method: The cannabinoid CB2 receptor agonist activity of the compounds of formula (I) was determined in accordance with the following experimental method.
Yeast (Saccharomyces cerevisiae) cells expressing the human cannabinoid CB2 receptor were generated by integration of an expression cassette into the ura3 chromosomal locus of yeast strain MMY23. This cassette consisted of DNA sequence encoding the human CB2 receptor flanked by the yeast GPD promoter to the 5′ end of CB2 and a yeast transcriptional terminator sequence to the 3′ end of CB2. MMY23 expresses a yeast/mammalian chimeric G-protein alpha subunit in which the C-terminal 5 amino acids of Gpa1 are replaced with the C-terminal 5 amino acids of human Gαi3 (as described in Brown et al. (2000), Yeast 16:11-22).
Agonists were prepared as 10 mM stocks in DMSO. […] Agonist solutions in DMSO (1% final assay volume) were transferred into black, clear bottom, microtitre plates from NUNC (96- or 384-well). Cells were suspended at a density of 0.2 OD600/ml in SC media lacking histidine, uracil, tryptophan, adenine and leucine and supplemented with 10 mM 3-aminotriazole, 0.1M sodium phosphate pH 7.0, and […] fluorescein di-β-D-glucopyranoside (FDGlu). […] Fluorescence was plotted against compound concentration and iteratively curve fitted using a four parameter fit to generate a concentration effect value. Efficacy (Emax) was calculated from the equation
Equieffective molar ratio (EMR) values were calculated from the equation

T1 sequence (P34972 whole entry): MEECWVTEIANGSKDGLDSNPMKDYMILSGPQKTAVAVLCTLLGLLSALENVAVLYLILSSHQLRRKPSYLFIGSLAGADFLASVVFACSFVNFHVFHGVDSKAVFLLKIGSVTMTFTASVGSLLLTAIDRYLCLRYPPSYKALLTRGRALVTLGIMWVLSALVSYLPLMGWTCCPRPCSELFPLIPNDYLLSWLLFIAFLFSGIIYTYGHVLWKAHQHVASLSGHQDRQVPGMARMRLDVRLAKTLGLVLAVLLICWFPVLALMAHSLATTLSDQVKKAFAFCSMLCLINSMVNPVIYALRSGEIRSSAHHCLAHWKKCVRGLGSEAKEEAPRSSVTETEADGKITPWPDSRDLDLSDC

Row | SMILES | EC50 [nM] | Emax [%]
1 | Cc1c(Nc2cc(C3CC3)c(C(=O)NCC3CCOCC3)cn2)cccc1C(F)(F)F [Example 107, 4-Cyclopropyl-6-(2-methyl-3-trifluoromethyl-phenylamino)-N-(tetrahydro-pyran-4-ylmethyl)-nicotinamide] | 300 to 1000 | > 50
2 | O=C(NCC1CCOCC1)c1cnc(Nc2cccc(Cl)c2Cl)cc1C1CCCC1 [Example 25, 4-Cyclopentyl-6-(2,3-dichloro-phenylamino)-N-(tetrahydro-pyran-4-ylmethyl)-nicotinamide] | 300 to 1000 | > 50
3 | Cc1ccc(Nc2cc(C3CC3)c(C(=O)NCC3CCOCC3)cn2)cc1F [Example 111, 4-Cyclopropyl-6-(3-fluoro-4-methyl-phenylamino)-N-(tetrahydro-pyran-4-ylmethyl)-nicotinamide] | 300 to 1000 | > 50
4 | O=C(NCC1CCOCC1)c1cnc(Nc2cccc(F)c2)cc1C1CCCC1 [Example 15, 4-Cyclopentyl-6-(3-fluoro-phenylamino)-N-(tetrahydro-pyran-4-ylmethyl)-nicotinamide] | 300 to 1000 | > 50
5 | O=C(NCC1CCOCC1)c1cnc(Nc2ccc(F)c(C(F)(F)F)c2)cc1C1CC1 [Example 93, 4-Cyclopropyl-6-(4-fluoro-3-trifluoromethyl-phenylamino)-N-(tetrahydro-pyran-4-ylmethyl)-nicotinamide] | 300 to 1000 | > 50
6 | O=C(NCC1CCC1)c1cnc(Nc2ccc(F)cc2Cl)cc1C1CC1 [Example 116] | 300 to 1000 | > 50
7 | COc1cccc(Nc2cc(C3CC3)c(C(=O)NCC3CCCC3)cn2)c1 [Example 118, N-Cyclopentylmethyl-4-cyclopropyl-6-(3-methoxy-phenylamino)-nicotinamide] | 300 to 1000 | > 50
8 | O=C(NCC1CCOCC1)c1cnc(Nc2ccc(F)c(F)c2)cc1C1CC1 [Example 113, 4-Cyclopropyl-6-(3,4-difluoro-phenylamino)-N-(tetrahydro-pyran-4-ylmethyl)-nicotinamide] | 300 to 1000 | > 50
9 | Cc1cc(Nc2cc(C3CC3)c(C(=O)NCC3CCOCC3)cn2)ccc1Br [Example 110, 6-(4-Bromo-3-methyl-phenylamino)-4-cyclopropyl-N-(tetrahydro-pyran-4-ylmethyl)-nicotinamide] | 300 to 1000 | > 50
10 | O=C(NCC1CCOCC1)c1cnc(Nc2cc(F)ccc2Cl)cc1C1CC1 [Example 108, 6-(2-Chloro-5-fluoro-phenylamino)-4-cyclopropyl-N-(tetrahydro-pyran-4-ylmethyl)-nicotinamide] | 300 to 1000 | > 50
11 | O=C(NCC1CCOCC1)c1cnc(Nc2ccc(F)c(Cl)c2)cc1C1CC1 [Example 21, 6-(3-Chloro-4-fluoro-phenylamino)-4-cyclopropyl-N-(tetrahydro-pyran-4-ylmethyl)-nicotinamide] | 300 to 1000 | > 50
12 | O=C(NCC1CCOCC1)c1cnc(Nc2ccc(Br)c(Cl)c2)cc1C1CC1 [Example 91, 6-(4-Bromo-3-chloro-phenylamino)-4-cyclopropyl-N-(tetrahydro-pyran-4-ylmethyl)-nicotinamide] | 300 to 1000 | > 50
13 | O=C(NCC1CCOCC1)c1cnc(Nc2ccc(Cl)cc2F)cc1C1CC1 [Example 98, 6-(4-Chloro-2-fluoro-phenylamino)-4-cyclopropyl-N-(tetrahydro-pyran-4-ylmethyl)-nicotinamide] | 300 to 1000 | > 50
14 | O=C(NCC1CCOCC1)c1cnc(Nc2cccc(C(F)(F)F)c2F)cc1C1CC1 [Example 20, 4-Cyclopropyl-6-(2-fluoro-3-trifluoromethyl-phenylamino)-N-(tetrahydro-pyran-4-ylmethyl)-nicotinamide] | 300 to 1000 | > 50
15 | O=C(NCC1CCOCC1)c1ccc(Nc2cccc(C(F)(F)F)c2)nc1C1CC1 [Example 125, 2-Cyclopropyl-N-(tetrahydro-pyran-4-ylmethyl)-6-(3-trifluoromethyl-phenylamino)-nicotinamide] | 300 to 1000 | > 50
16 | O=C(NCC1CCOCC1)c1cnc(Nc2ccc(F)cc2Cl)cc1C1CCCC1 [Example 22, 6-(2-Chloro-4-fluoro-phenylamino)-4-cyclopentyl-N-(tetrahydro-pyran-4-ylmethyl)-nicotinamide] | 300 to 1000 | > 50
17 | O=C(NCC1CCOCC1)c1cnc(Nc2ccc(Br)cc2F)cc1C1CC1 [Example 94, 6-(4-Bromo-2-fluoro-phenylamino)-4-cyclopropyl-N-(tetrahydro-pyran-4-ylmethyl)-nicotinamide] | 300 to 1000 | > 50

Row | SMILES | EC50 [nM] | Emax [%]
18 | Cc1cccc(Nc2cc(C3CC3)c(C(=O)NCC3CCOCC3)cn2)c1C#N [Example 109, 6-(2-Cyano-3-methyl-phenylamino)-4-cyclopropyl-N-(tetrahydro-pyran-4-ylmethyl)-nicotinamide] | 300 to 1000 | > 50
19 | O=C(NCC1CCOCC1)c1cnc(Nc2cc(Cl)ccc2F)cc1C1CC1 [Example 101, 6-(5-Chloro-2-fluoro-phenylamino)-4-cyclopropyl-N-(tetrahydro-pyran-4-ylmethyl)-nicotinamide] | 300 to 1000 | > 50
20 | Cc1cc(Cl)ccc1Nc1cc(C2CC2)c(C(=O)NCC2CCOCC2)cn1 [Example 95, 6-(4-Chloro-2-methyl-phenylamino)-4-cyclopropyl-N-(tetrahydro-pyran-4-ylmethyl)-nicotinamide] | 300 to 1000 | > 50
21 | O=C(NCC1CCOCC1)c1cnc(Nc2cc(C(F)(F)F)ccc2F)cc1C1CC1 [Example 102, 4-Cyclopropyl-6-(2-fluoro-5-trifluoromethyl-phenylamino)-N-(tetrahydro-pyran-4-ylmethyl)-nicotinamide] | 300 to 1000 | > 50
22 | O=C(NCC1CCOCC1)c1ccc(Nc2cccc(Cl)c2)nc1C1CC1 [Example 124, 6-(3-Chloro-phenylamino)-2-cyclopropyl-N-(tetrahydro-pyran-4-ylmethyl)-nicotinamide] | 300 to 1000 | > 50
23 | Cc1cc(Cl)ccc1Nc1cc(C2CCCC2)c(C(=O)NCC2CCOCC2)cn1 [Example 23, 6-(4-Chloro-2-methyl-phenylamino)-4-cyclopentyl-N-(tetrahydro-pyran-4-ylmethyl)-nicotinamide] | 300 to 1000 | > 50
24 | O=C(NCC1CCCC1)c1cnc(Nc2ccc(C(F)(F)F)c(Cl)c2)cc1C1CC1 [Example 120, 6-(3-Chloro-4-trifluoromethyl-phenylamino)-N-cyclopentylmethyl-4-cyclopropyl-nicotinamide] | 300 to 1000 | > 50
25 | Cc1ccc(C(F)(F)F)cc1Nc1cc(C2CC2)c(C(=O)NCC2CCOCC2)cn1 [Example 114, 4-Cyclopropyl-6-(2-methyl-5-trifluoromethyl-phenylamino)-N-(tetrahydro-pyran-4-ylmethyl)-nicotinamide] | 300 to 1000 | > 50
26 | Cc1cc(C#N)ccc1Nc1cc(C2CC2)c(C(=O)NCC2CCOCC2)cn1 [Example 106, 6-(4-Cyano-2-methyl-phenylamino)-4-cyclopropyl-N-(tetrahydro-pyran-4-ylmethyl)-nicotinamide] | 300 to 1000 | > 50
27 | COc1cccc(Nc2cc(C3CC3)c(C(=O)NCC3CCC3)cn2)c1 [Example 115, N-Cyclobutylmethyl-4-cyclopropyl-6-(3-methoxy-phenylamino)-nicotinamide] | 300 to 1000 | > 50
28 | O=C(NCC1CCOCC1)c1ccc(Nc2cccc(OC(F)(F)F)c2)nc1C1CC1 [Example 127, 2-Cyclopropyl-N-(tetrahydro-pyran-4-ylmethyl)-6-(3-trifluoromethoxy-phenylamino)-nicotinamide] | 300 to 1000 | > 50
29 | O=C(NCC1CCCC1)c1cnc(Nc2cccc(F)c2F)cc1C1CC1 [Example 122, N-Cyclopentylmethyl-4-cyclopropyl-6-(2,3-difluoro-phenylamino)-nicotinamide] | 300 to 1000 | > 50
30 | Cc1cccc(Nc2cc(C3CCCC3)c(C(=O)NCC3CCOCC3)cn2)c1 [Example 17, Methanesulphonic acid,compound with 4-cyclopentyl-N-(tetrahydro-pyran-4-ylmethyl)-6-m-tolylamino-nicotinamide] | 300 to 1000 | > 50
31 | N#Cc1ccc(Nc2cc(C3CCCC3)c(C(=O)NCC3CCOCC3)cn2)cc1 [Example 27, 6-(4-Cyano-phenylamino)-4-cyclopentyl-N-(tetrahydro-pyran-4-ylmethyl)-nicotinamide] | 300 to 1000 | > 50
32 | Cc1ccc(Cl)cc1Nc1cc(C2CC2)c(C(=O)NCC2CCOCC2)cn1 [Example 105, 6-(5-Chloro-2-methyl-phenylamino)-4-cyclopropyl-N-(tetrahydro-pyran-4-ylmethyl)-nicotinamide] | 300 to 1000 | > 50
33 | COc1cccc(Nc2cc(C3CCCC3)c(C(=O)NCC3CCOCC3)cn2)c1 [Example 26, 4-Cyclopentyl-6-(3-methoxy-phenylamino)-N-(tetrahydro-pyran-4-ylmethyl)-nicotinamide] | 300 to 1000 | > 50
